Patent publication US10945981B2, “Methods for treating familial adenomatous polyposis” (CANCER PREVENTION PHARMACEUTICALS, INC., priority 2019, dated 2021)
Entries after “also recorded” stand apart in the source; their conditions may differ.

Legend:
[1] = tested on: patients with Familial Adenomatous Polyposis (FAP); experiment: Randomized, double-blind phase III trial in FAP patients: FAP-related events (efficacy); format: in vivo, human; settings: for Mean time to first FRE: Kaplan-Meier estimated; for Hazard ratio: combination versus the arm named
Excerpt: Patients were stratified by anatomic site with highest polyp burden and surgical status: (a) post colectomy with rectal or ileal pouch polyposis (longest projected time to first FRE); (b) with duodenal polyposis (intermediate projected time to first FRE); and (c) pre-colectomy (shortest projected time to first FRE) prior to randomization to minimize treatment imbalance.
A stratified randomization procedure was used with stratification based on FAP-related time-to-first-event prognosis (see FIG. 1). The event prognosis groups were represented by 1) best (i.e., longest projected time to first FAP-related event)—rectal/pouch polyposis (Post-colectomy (≥3 years S/P IRA or IPAA with >10 polyps; any polyps >5 mm excised at baseline)), 2) intermediate—duodenal polyposis (Spigelman Stage 3 or 4 or Spigelman Stage 3 or 4 down-staged to Spigelman 1 or 2 within the past 6 months), and 3) worst—pre-colectomy. If a subject has two or more of these disease sites, the most severe prognosis stratum was assigned for randomization (e.g. worst>intermediate>best). Since an individual may have more than one disease site involved, the trial assessed time to any defined FAP-related event in the subject as a whole. In order to minimize potential treatment arm imbalance a centralized randomization process was used to balance among treatment groups within prognostic strata.
Lower GI Endoscopy: Patients were evaluated via colonoscopy, flexible or rigid procto-sigmoidoscopy during the screening phase. Biopsies, ablations, and snare excisions at baseline were performed per the clinician's standard of care. If considered eligible based on inclusion criteria, a grossly normal mucosa biopsy was obtained for baseline polyamine measurement. Still and video documentation of the colon (vide infra) or the residual rectum or entire pouch was also obtained for archiving. Polyp size was determined by visual comparison with biopsy forceps that can measure 5.0-5.5 mm in the fully open position. All randomized patients with an intact colon or rectum/pouch had baseline and on-study lower GI endoscopy procedures as part of this trial.
Upper GI Endoscopy: The duodenum was evaluated by forward-viewing and/or side-viewing gastroscopes (with still and video documentation with closed and open biopsy forceps near mucosa). All randomized patients with a duodenum had baseline and on-study UGI endoscopy as part of this trial. Subjects stratified to the duodenal group must have duodenal biopsies of all polyps 1 cm or larger to determine HGD and histology required for determining Stage 3 or 4 Spigelman status.
FAP-related primary events by disease site were as follows: • 1. Pre-operative, intact colon: Disease progression indicating need for colectomy with IRA or total procto-colectomy • 2. Retained rectum or pouch events include one or more of the following: • a) Excisional intervention by endoscopic snare or trans-anal excision to remove any polyp ≥10 mm in size (per pathology report) and/or pathologic evidence of high grade dysplasia. • b) Disease progression indicating need for proctectomy or pouch resection • 3. Duodenal disease includes the following: • a) Progression in Spigelman Stage to more advanced stage (Stage 2, 3 or 4) • b) Disease progression indicating need for excisional intervention (sub-mucosal resection, trans-duodenal excision, ampullectomy, duodenectomy, Whipple procedure) • c) Development of cancer
At six month intervals (+/−two weeks), subjects underwent repeat upper and lower endoscopy. […] Video recordings of all procedures and qualitative assessments were compared to the exam 6 months prior.

[2] = cited from earlier work
[3] = human, in vivo; cited from earlier work
[4] = tested on: patients with Familial Adenomatous Polyposis (FAP); experiment: Randomized, double-blind phase III trial in FAP patients: safety (adverse events); settings: for Treatment-related serious adverse events: 1 patient each
[5] = in vivo; cited from earlier work
patients with FAP = settings: cited from earlier work
[6] = disease site colon, number of subjects
[7] = disease site duodenum, number of subjects
[8] = disease site rectum and pouch, number of subjects
[9] = post-colectomy, rectal/ileal pouch stratum

CC1=C(CC(=O)O)c2cc(F)ccc2/C1=C\c1ccc([S+](C)[O-])cc1 (stereo not shown) [Sulindac, (Z)-5-fluoro-2-methyl-1-((4-(methylsulfinyl)phenyl)methylene)-1H-indene-3-acetic acid]
Kaplan-Meier estimated mean time to first FRE ([1]; ITT population): 23.6 months
Event-free rate ([1]; ITT population, cumulative): 63.1%
FREs occurred, percent of patients ([1]; ITT population, cumulative): 37.9%
Surgical FAP-related events, Colon: Event-free proportion ([1]; disease site colon): 69.2%
Surgical FAP-related events, Colon: Colectomy [1, 6]: 2
Surgical FAP-related events, Colon: Disease progression [1, 6]: 4
Surgical FAP-related events, Duodenum: Event-free proportion ([1]; disease site duodenum): 70.2%
Surgical FAP-related events, Duodenum: Disease progression [1, 7]: 10
Surgical FAP-related events, Duodenum: Excisional intervention [1, 7]: 6
Surgical FAP-related events, Duodenum: Spigelman stage progression [1, 7]: 7
Surgical FAP-related events, Rectum and Pouch: Event-free proportion ([1]; disease site rectum and pouch): 95%
Surgical FAP-related events, Rectum and Pouch: Disease progression [1, 8]: 2
Surgical FAP-related events, Rectum and Pouch: Proctectomy/pouch resection [1, 8]: 1
FRE type: Duodenal excision ([1]; duodenal polyposis stratum): 6
FRE type: Duodenal excision and Spigelman stage progression ([1]; duodenal polyposis stratum): 2
FRE type: Duodenal excision and ≥ 10 mm polyp removed in rectum/pouch ([1]; duodenal polyposis stratum): 1
FRE type: Proctocolectomy and ≥ 10 mm polyp removed in rectum/pouch ([1]; duodenal polyposis stratum): 1
FRE type: Spigelman stage progression ([1]; duodenal polyposis stratum): 3
FRE type: ≥10 mm polyp removed in rectum/pouch ([1]; duodenal polyposis stratum): 1
Patients with FRE, % ([1]; duodenal polyposis stratum): (41.2) %
Total FRE ([1]; duodenal polyposis stratum): 14
Mean time to first FRE ([1]; duodenal polyposis stratum): 21.1 months
Risk reduction versus combination ([1]; duodenal polyposis stratum, combination relative to the arm named): 29%
Hazard ratio ([1]; duodenal polyposis stratum): 0.716
Patients with FRE, % ([1]; duodenal polyposis stratum, listed as sulindac): 41.2%
Progression of lower gastrointestinal polyposis: surgeries ([1]; human, in vivo): 3
Patients with duodenal polyposis progression who underwent duodenal excisional procedures ([1]; number of patients): 6
FRE type: Pouch resection [1, 9]: 1
FRE type: ≥10 mm polyp removed in rectum/pouch [1, 9]: 1
Patients with FRE, % [1, 9]: (18.2) %
Total FRE [1, 9]: 2
Mean time to first FRE [1, 9]: 27.5 months
Risk reduction versus combination ([1]; post-colectomy, rectal/ileal pouch stratum, combination relative to the arm named): 16%
Hazard ratio [1, 9]: 0.841
Patients with FRE, % ([1]; post-colectomy, rectal/ileal pouch stratum, listed as sulindac): 18.2%
FRE type: Colectomy ([1]; pre-colectomy stratum): 4
FRE type: Duodenal excision and Spigelman stage progression ([1]; pre-colectomy stratum): 1
FRE type: Spigelman stage progression ([1]; pre-colectomy stratum): 1
Patients with FRE, % ([1]; pre-colectomy stratum): (46.2) %
Total FRE ([1]; pre-colectomy stratum): 6
Mean time to first FRE ([1]; pre-colectomy stratum): 25.2 months
Hazard ratio ([1]; pre-colectomy stratum): 0.299
Patients with FRE, % ([1]; pre-colectomy stratum, listed as sulindac): 46.2%
Risk reduction versus combination ([1]; pre-colectomy stratum, risk reduction for FRE of the combination relative to the arm named): 70%
Event Rate of FAP-related Surgery Events in Lower GI ([1]; subjects with lower GI anatomy): 6/58 (10%)
Lower GI surgery events: Need colectomy ([1]; subjects with lower GI anatomy): 4
Lower GI surgery events: Need pouch resection ([1]; subjects with lower GI anatomy): 1
Lower GI surgery events: Need proctectomy ([1]; subjects with lower GI anatomy): 1
Lower GI surgery events: Total Surgical Events ([1]; subjects with lower GI anatomy): 6
Progression of lower gastrointestinal polyposis: polypectomies ([1]; ≥10 mm in size and/or high grade dysplasia): 4
Time to peak plasma levels ([2]; oral, fasting patients): about 2 hours
Drug absorbed after oral administration ([2]; oral): about 90%
Mild gastrointestinal effects, percent of patients [3]: ~20%
Skin rash and pruritus, percent of patients [3]: 5%
Discontinuations due to AEs, number of patients [4]: 6 patients
Discontinuations due to AEs, percent of patients [4]: 10.3%
TRAE reported by % of patients [4]: 73.7%
Treatment-related hearing adverse events: Hearing loss N [4]: 2
Treatment-related hearing adverse events: Tinnitus N [4]: 5
Treatment-related serious adverse events [4]: Severe Nausea; also recorded: Deep Vein Thrombosis; also recorded: Worsening of Depression; also recorded: Spontaneous Abortion
Treatment-related serious adverse events ([4]; listed as sulindac): severe nausea, deep vein thrombosis, worsening of depression, and spontaneous abortion
Death ([4]; safety population): 0 n (%)
Number of patients discontinuing due to a TRAE ([4]; safety population): 5 (8.8) n (%)
Number of patients reporting TEAEs ([4]; safety population): 50 (87.7) n (%)
Number of patients reporting TEAEs ≥ Grade 3 ([4]; safety population): 12 (21.1) n (%)
Number of patients reporting TRAE: Abdominal distension ([4]; safety population): 3 (5.3) n (%)
Number of patients reporting TRAE: Abdominal pain ([4]; safety population): 4 (7.0) n (%)
Number of patients reporting TRAE: Alopecia ([4]; safety population): 3 (5.3) n (%)
Number of patients reporting TRAE: Decreased appetite ([4]; safety population): 4 (7.0) n (%)
Number of patients reporting TRAE: Depression ([4]; safety population): 3 (5.3) n (%)
Number of patients reporting TRAE: Diarrhea ([4]; safety population): 3 (5.3) n (%)
Number of patients reporting TRAE: Dizziness ([4]; safety population): 2 (3.5) n (%)
Number of patients reporting TRAE: Dyspepsia ([4]; safety population): 4 (7.0) n (%)
Number of patients reporting TRAE: Fatigue ([4]; safety population): 4 (7.0) n (%)
Number of patients reporting TRAE: Flatulence ([4]; safety population): 3 (5.3) n (%)
Number of patients reporting TRAE: Frequent bowel movements ([4]; safety population): 1 (1.8) n (%)
Number of patients reporting TRAE: Gastritis erosive ([4]; safety population): 0 n (%)
Number of patients reporting TRAE: Headache ([4]; safety population): 7 (12.3) n (%)
Number of patients reporting TRAE: Hematochezia ([4]; safety population): 2 (3.5) n (%)
Number of patients reporting TRAE: Nausea ([4]; safety population): 9 (15.8) n (%)
Number of patients reporting TRAE: Pruritus ([4]; safety population): 4 (7.0) n (%)
Number of patients reporting TRAE: Rash ([4]; safety population): 0 n (%)
Number of patients reporting TRAE: Rectal hemorrhage ([4]; safety population): 4 (7.0) n (%)
Number of patients reporting TRAE: Thrombocytopenia ([4]; safety population): 3 (5.3) n (%)
Number of patients reporting TRAE: Tinnitus ([4]; safety population): 5 (8.8) n (%)
Number of patients reporting TRAE: Upper abdominal pain ([4]; safety population): 1 (1.8) n (%)
Number of patients reporting TRAE: Vomiting ([4]; safety population): 4 (7.0) n (%)
Number of patients reporting TRAEs ([4]; safety population): 42 (73.7) n (%)
Number of patients reporting TRSAEs ([4]; safety population): 4 (7.0) n (%)

Cc1ccc(-c2cc(C(F)(F)F)nn2-c2ccc(S(N)(=O)=O)cc2)cc1 [celecoxib, 4-[5-(4-Methylphenyl)-3-(trifluoromethyl)pyrazol-1-yl]benzenesulfonamide]
Increase in rates of heart and blood vessel disease [5]: 30%
Risk of gastrointestinal side effects [5]: greater than 80%
Reduction of measures of global tumor burden from baseline (patients with FAP): 30%
Reduction of the number of colonic adenomas (patients with FAP): 1%

CSc1ccc(/C=C2/C(C)=C(CC(=O)O)c3cc(F)ccc32)cc1 [sulfide metabolite]
Mean half-life ([2]; in vivo): 16.4 h
